≈ marks a conversion by molar mass, not a printed value.
Assays:
Assay type in all cases: functional
Staphylococcus aureus [1] = assay: Antibacterial activity against Staphylococcus aureus SA85 isolate
Pseudomonas aeruginosa = assay: Antibacterial activity against Pseudomonas aeruginosa ATCC 27753
Bacillus subtilis = assay: Antibacterial activity against Bacillus subtilis ATCC 6633
Staphylococcus aureus [2] = assay: Antibacterial activity against Staphylococcus aureus ATCC 105487
Enterococcus faecalis = assay: Antibacterial activity against Enterococcus faecalis ATCC 29212
Staphylococcus aureus [3] = assay: Antibacterial activity against Staphylococcus aureus SA87 isolate
Staphylococcus aureus [4] = assay: Antibacterial activity against Staphylococcus aureus ATCC 25923
[5] = system: Mycobacterium tuberculosis; assay: Antibacterial activity against Mycobacterium tuberculosis H37Rv by dilution method
Kluyveromyces marxianus = assay: Antifungal activity against Candida pseudotropicalis by dilution method
Candida albicans = assay: Antifungal activity against Candida albicans by dilution method
Staphylococcus aureus [6] = assay: Antibacterial activity against Staphylococcus aureus SA52 isolate
Escherichia coli = assay: Antibacterial activity against Escherichia coli ATCC 25922
[7] = system: Mycobacterium tuberculosis; assay: Antibacterial activity against Mycobacterium tuberculosis H190 by dilution method
[8] = system: Mycobacterium tuberculosis; assay: Antibacterial activity against Mycobacterium tuberculosis H160 by dilution method
[9] = Bacillus subtilis, ATCC 6633, read-out: MIC
[10] = Staphylococcus aureus, read-out: MIC
[11] = Mycobacterium tuberculosis, H37Rv, read-out: MIC
[12] = Mycobacterium tuberculosis, H160, read-out: MIC

With `CC/C=C\C/C=C\C/C=C\CCCCCCCC(=O)OC(COC(=O)CCCCCCC)CO[C@@H]1O[C@H](CO)[C@H](O)[C@H](O)[C@H]1O` (stereo not given in full) the MIC (Staphylococcus aureus [1]) was over 128 µg/mL, the MIC (Pseudomonas aeruginosa) was over 128 µg/mL and the MIC (Bacillus subtilis; [9]) was 128 µg/mL (≈ 200 µM). It also gave an MIC (Staphylococcus aureus [2]) of over 128 µg/mL, an MIC (Enterococcus faecalis) of over 128 µg/mL and an MIC (Staphylococcus aureus [3]; [10]) of 64 µg/mL (≈ 99.9 µM). The MIC (Staphylococcus aureus [4]) was over 128 µg/mL, the MIC [5, 11] was 128 µg/mL (≈ 200 µM) and the MIC (Kluyveromyces marxianus) was over 128 µg/mL. For the same compound, the MIC (Candida albicans) was over 128 µg/mL, the MIC (Staphylococcus aureus [6]) was over 128 µg/mL and the MIC (Escherichia coli) was over 128 µg/mL. The MIC [7] was 128 µg/mL (≈ 200 µM) and the MIC [8, 12] was 128 µg/mL (≈ 200 µM).
`CCCCC/C=C\C/C=C\CCCCCCCC(=O)OCC(CO[C@@H]1O[C@H](CO)[C@@H](O)[C@H](O)[C@H]1O)OC(=O)CCCCCCC/C=C\C/C=C\CCCCC` (stereo in doubt; 9q) was tested, and the MIC (Staphylococcus aureus [1]) was over 128 µg/mL, the MIC (Pseudomonas aeruginosa) was over 128 µg/mL and the MIC (Bacillus subtilis; [9]) was 128 µg/mL (≈ 164 µM). It also gave an MIC (Staphylococcus aureus [2]) of over 128 µg/mL, an MIC (Enterococcus faecalis) of over 128 µg/mL and an MIC (Staphylococcus aureus [3]; [10]) of 128 µg/mL (≈ 164 µM). The MIC (Staphylococcus aureus [4]) was over 128 µg/mL, the MIC [5] was 128 µg/mL (≈ 164 µM) and the MIC (Kluyveromyces marxianus) was over 128 µg/mL. It also gave an MIC (Candida albicans) of over 128 µg/mL, an MIC (Staphylococcus aureus [6]) of over 128 µg/mL and an MIC (Escherichia coli) of over 128 µg/mL. For the same compound, the MIC [8] was 128 µg/mL (≈ 164 µM).
In the case of `CCCCCCCC/C=C\CCCCCCCC(=O)OC(COC(=O)CCCCCCC)CO[C@@H]1O[C@H](CO)[C@@H](O)[C@H](O)[C@H]1O` (stereo not given in full), the MIC (Staphylococcus aureus [1]) is reported as over 128 µg/mL, the MIC (Pseudomonas aeruginosa) is reported as over 128 µg/mL and the MIC (Bacillus subtilis; [9]) is reported as 128 µg/mL (≈ 198 µM). For the same compound, the MIC (Staphylococcus aureus [2]) was over 128 µg/mL, the MIC (Enterococcus faecalis) was over 128 µg/mL and the MIC (Staphylococcus aureus [3]; [10]) was 64 µg/mL (≈ 99.2 µM). For the same compound, the MIC (Staphylococcus aureus [4]) was over 128 µg/mL, the MIC [5, 11] was 64 µg/mL (≈ 99.2 µM) and the MIC (Kluyveromyces marxianus) was over 128 µg/mL. It also gave an MIC (Candida albicans) of over 128 µg/mL, an MIC (Staphylococcus aureus [6]) of over 128 µg/mL and an MIC (Escherichia coli) of over 128 µg/mL. For the same compound, the MIC [7] was 64 µg/mL (≈ 99.2 µM) and the MIC [8, 12] was 64 µg/mL (≈ 99.2 µM).
`CCCCC/C=C\C/C=C\CCCCCCCC(=O)OC(COC(=O)CCCCCCCCC)CO[C@@H]1O[C@H](CO)[C@@H](O)[C@H](O)[C@H]1O` (stereo not given in full) gave an MIC (Staphylococcus aureus [1]) of 32 µg/mL (≈ 47.7 µM), an MIC (Pseudomonas aeruginosa) of over 128 µg/mL and an MIC (Bacillus subtilis; [9]) of 128 µg/mL (≈ 191 µM). The MIC (Staphylococcus aureus [2]) was 32 µg/mL (≈ 47.7 µM), the MIC (Enterococcus faecalis) was 64 µg/mL (≈ 95.4 µM) and the MIC (Staphylococcus aureus [3]; [10]) was 32 µg/mL (≈ 47.7 µM). For the same compound, the MIC (Staphylococcus aureus [4]) was over 128 µg/mL, the MIC [5, 11] was over 128 µg/mL and the MIC (Kluyveromyces marxianus) was over 128 µg/mL. The MIC (Candida albicans) was over 128 µg/mL, the MIC (Staphylococcus aureus [6]) was over 128 µg/mL and the MIC (Escherichia coli) was over 128 µg/mL. It also gave an MIC [7] of over 128 µg/mL and an MIC [8, 12] of over 128 µg/mL.
In the case of `CCCCCCCCCC(=O)OCC(CO[C@@H]1O[C@H](CO)[C@H](O)[C@H](O)[C@H]1O)OC(=O)CCCCCCCCC` (stereo not given in full), the MIC (Staphylococcus aureus [1]) is reported as 32 µg/mL (≈ 56.9 µM), the MIC (Pseudomonas aeruginosa) is reported as over 128 µg/mL and the MIC (Bacillus subtilis; [9]) is reported as over 128 µg/mL. It also gave an MIC (Staphylococcus aureus [2]) of over 128 µg/mL, an MIC (Enterococcus faecalis) of over 128 µg/mL and an MIC (Staphylococcus aureus [3]; [10]) of 128 µg/mL (≈ 227 µM). The MIC (Staphylococcus aureus [4]) was 32 µg/mL (≈ 56.9 µM), the MIC [5, 11] was 128 µg/mL (≈ 227 µM) and the MIC (Kluyveromyces marxianus) was over 128 µg/mL. For the same compound, the MIC (Candida albicans) was over 128 µg/mL, the MIC (Staphylococcus aureus [6]) was over 128 µg/mL and the MIC (Escherichia coli) was over 128 µg/mL. For the same compound, the MIC [7] was 64 µg/mL (≈ 114 µM) and the MIC [8, 12] was 64 µg/mL (≈ 114 µM).
`CCCCCCCC/C=C\CCCCCCCC(=O)OC(COC(=O)CCCCCCC)CO[C@@H]1O[C@H](CO)[C@H](O)[C@H](O)[C@H]1O` (stereo not given in full) was tested, and the MIC (Staphylococcus aureus [1]) was over 128 µg/mL, the MIC (Pseudomonas aeruginosa) was over 128 µg/mL and the MIC (Bacillus subtilis; [9]) was 128 µg/mL (≈ 198 µM). For the same compound, the MIC (Staphylococcus aureus [2]) was over 128 µg/mL, the MIC (Enterococcus faecalis) was over 128 µg/mL and the MIC (Staphylococcus aureus [3]; [10]) was 64 µg/mL (≈ 99.2 µM). It also gave an MIC (Staphylococcus aureus [4]) of over 128 µg/mL, an MIC [5, 11] of 128 µg/mL (≈ 198 µM) and an MIC (Kluyveromyces marxianus) of over 128 µg/mL. For the same compound, the MIC (Candida albicans) was over 128 µg/mL, the MIC (Staphylococcus aureus [6]) was over 128 µg/mL and the MIC (Escherichia coli) was over 128 µg/mL. It also gave an MIC [7] of 64 µg/mL (≈ 99.2 µM) and an MIC [8, 12] of 64 µg/mL (≈ 99.2 µM).
`CC/C=C\C/C=C\C/C=C\CCCCCCCC(=O)OCC(CO[C@@H]1O[C@H](CO)[C@@H](O)[C@H](O)[C@H]1O)OC(=O)CCCCCCC/C=C\C/C=C\C/C=C\CC` (stereo not given in full) was tested, and the MIC (Staphylococcus aureus [1]) was over 128 µg/mL, the MIC (Pseudomonas aeruginosa) was over 128 µg/mL and the MIC (Bacillus subtilis; [9]) was over 128 µg/mL. It also gave an MIC (Staphylococcus aureus [2]) of over 128 µg/mL, an MIC (Enterococcus faecalis) of over 128 µg/mL and an MIC (Staphylococcus aureus [3]; [10]) of over 128 µg/mL. It also gave an MIC (Staphylococcus aureus [4]) of over 128 µg/mL, an MIC [5, 11] of over 128 µg/mL and an MIC (Kluyveromyces marxianus) of over 128 µg/mL. The MIC (Candida albicans) was over 128 µg/mL, the MIC (Staphylococcus aureus [6]) was over 128 µg/mL and the MIC (Escherichia coli) was over 128 µg/mL. It also gave an MIC [7] of over 128 µg/mL and an MIC [8, 12] of over 128 µg/mL.
`CC/C=C\C/C=C\C/C=C\CCCCCCCC(=O)OC[C@H](CO[C@@H]1O[C@H](CO)C(O)[C@H](O)[C@H]1O)OC(=O)CCCCCCC/C=C\C/C=C\C/C=C\CC` (single isomer, unassigned) showed an MIC (Staphylococcus aureus [1]) of over 128 µg/mL, an MIC (Pseudomonas aeruginosa) of over 128 µg/mL and an MIC (Bacillus subtilis; [9]) of over 128 µg/mL. It also gave an MIC (Staphylococcus aureus [2]) of over 128 µg/mL, an MIC (Enterococcus faecalis) of over 128 µg/mL and an MIC (Staphylococcus aureus [3]; [10]) of over 128 µg/mL. For the same compound, the MIC (Staphylococcus aureus [4]) was 128 µg/mL (≈ 165 µM), the MIC [5, 11] was over 128 µg/mL and the MIC (Kluyveromyces marxianus) was over 128 µg/mL. The MIC (Candida albicans) was over 128 µg/mL, the MIC (Staphylococcus aureus [6]) was over 128 µg/mL and the MIC (Escherichia coli) was over 128 µg/mL. The MIC [7] was over 128 µg/mL and the MIC [8, 12] was over 128 µg/mL.
In the case of `CC/C=C\C/C=C\C/C=C\CCCCCCCC(=O)OC(COC(=O)CCCCCCC)CO[C@@H]1O[C@H](CO)[C@@H](O)[C@H](O)[C@H]1O` (stereo not given in full), the MIC (Staphylococcus aureus [1]) is reported as over 128 µg/mL, the MIC (Pseudomonas aeruginosa) is reported as over 128 µg/mL and the MIC (Bacillus subtilis; [9]) is reported as 128 µg/mL (≈ 200 µM). For the same compound, the MIC (Staphylococcus aureus [2]) was over 128 µg/mL, the MIC (Enterococcus faecalis) was over 128 µg/mL and the MIC (Staphylococcus aureus [3]; [10]) was 64 µg/mL (≈ 99.9 µM). The MIC (Staphylococcus aureus [4]) was over 128 µg/mL, the MIC [5, 11] was 64 µg/mL (≈ 99.9 µM) and the MIC (Kluyveromyces marxianus) was over 128 µg/mL. For the same compound, the MIC (Candida albicans) was over 128 µg/mL, the MIC (Staphylococcus aureus [6]) was over 128 µg/mL and the MIC (Escherichia coli) was over 128 µg/mL. The MIC [7] was 64 µg/mL (≈ 99.9 µM) and the MIC [8, 12] was 128 µg/mL (≈ 200 µM).
For `CCCCC/C=C\C/C=C\CCCCCCCC(=O)OCC(CO[C@@H]1O[C@H](CO)[C@@H](O)[C@H](O)[C@H]1O)OC(=O)CCCCCCC/C=C\C/C=C\CCCCC` (stereo in doubt; 9g), the MIC (Bacillus subtilis) was 128 µg/mL (≈ 164 µM), the MIC (Staphylococcus aureus [3]) was 64 µg/mL (≈ 82.1 µM) and the MIC [5, 11] was 64 µg/mL (≈ 82.1 µM). The MIC [7] was 128 µg/mL (≈ 164 µM) and the MIC [8, 12] was 64 µg/mL (≈ 82.1 µM).
